Test results as given in the supplement of paper PMC11061612.

How the values were obtained:
[1] = compound: COc1cccc2c1C(=O)c1c(O)c3c(c(O)c1C2=O)C[C@@](O)(C(=O)CO)C[C@@H]3O[C@H]1C[C@H](N)[C@H](O)[C@H](C)O1 [Doxorubicin]; settings: max 1 µM
How it was run: (§1)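 Viability was measured with CellTiter-Glo 2.0 luminescence after 72 hours of dosing at a final DMSO of typically 0.2%, and scaled between blank-well and DMSO-well means. Beforehand, cancer cell lines sat 24 hours at 37°C and 5% CO2 in 1536-well plates in 7.5 μl DMEM/F12 or RPMI with 10% FBS. A non-linear mixed effects model fitted two-parameter logistic curves to the dose responses. The single-agent IC50 comes from these fits.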

[2] = compound: N#Cc1cnc(Nc2cc(NC[C@H]3CNCCO3)c(C(F)(F)F)cn2)cn1 [SRA737]; settings: max 10 µM
How it was run: as §1

[3] = compound: Cc1cc2ncnn2cc1Nc1ncc2c(n1)n(C1CCOCC1)c(=O)n2C [AZD7648]; settings: max 10 µM
How it was run: as §1

[4] = compound: O=c1[nH]cc(F)c(=O)[nH]1 [5-Fluorouracil]; settings: max 20 µM
How it was run: as §1

[5] = compound: C1CN(CCC1(C(=O)N[C@@H](CCO)C2=CC=C(C=C2)Cl)N)C3=NC=NC4=C3C=CN4 [AZD5363]; settings: max 10 µM
How it was run: as §1

[6] = compound: C1CC(C1)(C(=O)[O-])C(=O)[O-].N.N.[Pt+2] [Carboplatin]; settings: max 10 µM
How it was run: as §1

[7] = compound: Cc1c2c(nn1C)CSCc1cc(n(C)n1)CSc1cc(c3ccccc3c1)OCCCc1c(C(=O)O)n(C)c3c-2c(Cl)ccc13 [AZD5991]; settings: max 1 µM
How it was run: as §1

[8] = compound: COc1cc([C@@H]2c3cc4c(cc3[C@@H](O[C@@H]3O[C@@H]5CO[C@@H](C)O[C@H]5[C@H](O)[C@H]3O)[C@H]3COC(=O)[C@H]23)OCO4)cc(OC)c1O [Etoposide]; settings: max 10 µM
How it was run: as §1

[9] = compound: C[C@@H]1COCCN1C2=NC(=NC(=C2)C3(CC3)[S@](=N)(=O)C)C4=C5C=CNC5=NC=C4 [AZD6738]; settings: max 10 µM
How it was run: as §1

[10] = compound: Cc1nc(-c2cn3c(n2)-c2ccc(-c4cnn(C(C)(C)C(N)=O)c4)cc2OCC3)n(C(C)C)n1 [Taselisib]; settings: max 10 µM
How it was run: as §1

[11] = compound: CC1=C(C(=CC=C1)Cl)NC(=O)C2=CN=C(S2)NC3=CC(=NC(=N3)C)N4CCN(CC4)CCO [Dasatinib]; settings: max 2 µM
How it was run: as §1

[12] = compound: COc1cc2ncnc(Nc3ccc(F)c(Cl)c3)c2cc1OCCCN1CCOCC1 [Gefitinib]; settings: max 10 µM
How it was run: as §1

[13] = compound: C=CCn1c(=O)c2cnc(Nc3ccc(N4CCN(C)CC4)cc3)nc2n1-c1cccc(C(C)(C)O)n1 [AZD1775]; settings: max 3 µM
How it was run: as §1

[14] = compound: COc1cc(Nc2ncc3c(n2)-c2ccc(Cl)cc2C(c2c(F)cccc2OC)=NC3)ccc1C(=O)O [Alisertib]; settings: max 10 µM
How it was run: as §1

[15] = compound: COc1cccc(OCCCN)c1-c1cc(Nc2cnc(C#N)cn2)n[nH]1 [Prexasertib]; settings: max 1 µM
How it was run: as §1

[16] = compound: CC(=O)c1c(C)c2cnc(Nc3ccc(N4CCNCC4)cn3)nc2n(C2CCCC2)c1=O [Palbociclib]; settings: max 10 µM
How it was run: as §1

[17] = compound: CS(=O)(=O)CCNCc1ccc(-c2ccc3ncnc(Nc4ccc(OCc5cccc(F)c5)c(Cl)c4)c3c2)o1 [Lapatinib]; settings: max 10 µM
How it was run: as §1

[18] = compound: CN(C)CCCOc1ccc(-c2ccc3ncc4c(c3c2)n(C2CCOCC2)c(=O)n4C)cn1 [AZD0156]; settings: max 3 µM
How it was run: as §1

[19] = compound: CN(CC[C@H](CSC1=CC=CC=C1)NC2=C(C=C(C=C2)S(=O)(=O)NC(=O)C3=CC=C(C=C3)N4CCC(CC4)[C@H](C5=CC=CC=C5C6=CC=C(C=C6)Cl)O)S(=O)(=O)C(F)(F)F)CCO [AZD4320]; settings: max 1 µM
How it was run: as §1

[20] = compound: Cn1cnc2c(F)c(Nc3ccc(Br)cc3Cl)c(C(=O)NOCCO)cc21 [Selumetinib]; settings: max 10 µM
How it was run: as §1

[21] = compound: CC1(C)CCC(CN2CCN(c3ccc(C(=O)NS(=O)(=O)c4ccc(NCC5CCOCC5)c([N+](=O)[O-])c4)c(Oc4cnc5[nH]ccc5c4)c3)CC2)=C(c2ccc(Cl)cc2)C1 [Venetoclax]; settings: max 1 µM
How it was run: as §1

[22] = compound: O=C(c1cc(Cc2n[nH]c(=O)c3ccccc23)ccc1F)N1CCN(C(=O)C2CC2)CC1 [Olaparib]; settings: max 10 µM
How it was run: as §1

[23] = compound: CC1=CN2[C@@H](C1)C=NC3=CC(=C(C=C3C2=O)OC)OCCCCCOC4=C(C=C5C(=C4)N=C[C@@H]6CC(=CN6C5=O)C)OC [SG3199]; settings: max 0.001 µM
How it was run: as §1

[24] = compound: C[C@@H](Oc1cc(-c2cnn(C3CCNCC3)c2)cnc1N)c1c(Cl)ccc(F)c1Cl [Crizotinib]; settings: max 10 µM
How it was run: as §1

[25] = compound: CCc1c2c(nc3ccc(O)cc13)-c1cc3c(c(=O)n1C2)COC(=O)[C@]3(O)CC [SN-38]; settings: max 0.3 µM
How it was run: as §1

[26] = compound: C[C@@H](Nc1cc(F)cc(F)c1)c1cc(C(=O)N(C)C)cc2c(=O)cc(N3CCOCC3)oc12 [AZD8186]
How it was run: as §1

[27] = compound: CC(=O)Nc1cccc(-n2c(=O)n(C3CC3)c(=O)c3c(Nc4ccc(I)cc4F)n(C)c(=O)c(C)c32)c1 [Trametinib]; settings: max 1 µM
How it was run: as §1

[28] = compound: O=C(Nc1ccc2[nH]nc(-c3ccncc3)c2c1)[C@@H]1CCN(CC(=O)N2CCN(c3ccc(-c4ncccn4)cc3)CC2)C1; settings: max 5 µM
How it was run: as §1

[29] = compound: CC(=O)O[C@H]1C(=O)[C@@]2(C)[C@H]([C@H](OC(=O)c3ccccc3)[C@]3(O)C[C@H](OC(=O)[C@H](O)[C@@H](NC(=O)c4ccccc4)c4ccccc4)C(C)=C1C3(C)C)[C@]1(OC(C)=O)CO[C@@H]1C[C@@H]2O [Paclitaxel]; settings: max 3 µM
How it was run: as §1

[30] = compound: CCN(CCO)CCCOc1ccc2c(Nc3cc(CC(=O)Nc4cccc(F)c4)[nH]n3)ncnc2c1 [AZD2811]; settings: max 1 µM
How it was run: as §1

[31] = compound: COc1nnc2ccc(N3CCC(c4ccc(OCCN5CCN(C)C(=O)[C@H]5C)cc4)CC3)nn12 [AZD5153]; settings: max 1 µM
How it was run: as §1

[32] = compound: NC1(c2ccc(-c3nc4ccn5c(=O)[nH]nc5c4cc3-c3ccccc3)cc2)CCC1 [MK-2206]; settings: max 10 µM
How it was run: as §1

[33] = compound: CC(C)n1c(=O)n(C)c2cnc3cc(F)c(-c4ccc(OCCCN5CCCCC5)nc4)cc3c21 [AZD1390]; settings: max 0.3 µM
How it was run: as §1

[34] = compound: C[C@@H](c1ccc2nccn2c1)n1nnc2ncc(-c3cnn(C)c3)nc21 [Savolitinib]; settings: max 1 µM
How it was run: as §1

[35] = compound: C1CN(CCC1(C(=O)N[C@@H](CCO)C2=CC=C(C=C2)Cl)N)C3=NC=NC4=C3C=CN4 [Capivasertib]; settings: max 10 µM
How it was run: as §1

Row | Cell Line | IC50, cell viability 72 h [1] | IC50, cell viability 72 h [2] | IC50, cell viability 72 h [3] | IC50, cell viability 72 h [4] | IC50, cell viability 72 h [5] | IC50, cell viability 72 h [6] | IC50, cell viability 72 h [7] | IC50, cell viability 72 h [8] | IC50, cell viability 72 h [9] | IC50, cell viability 72 h [10] | IC50, cell viability 72 h [11] | IC50, cell viability 72 h [12] | IC50, cell viability 72 h [13] | IC50, cell viability 72 h [14] | IC50, cell viability 72 h [15] | IC50, cell viability 72 h [16] | IC50, cell viability 72 h [17] | IC50, cell viability 72 h [18] | IC50, cell viability 72 h [19] | IC50, cell viability 72 h [20] | IC50, cell viability 72 h [21] | IC50, cell viability 72 h [22] | IC50, cell viability 72 h [23] | IC50, cell viability 72 h [24] | IC50, cell viability 72 h [25] | IC50, cell viability 72 h ([26]; max 10 µM) | IC50, cell viability 72 h [27] | IC50, cell viability 72 h [28] | IC50, cell viability 72 h [29] | IC50, cell viability 72 h [30] | IC50, cell viability 72 h [31] | IC50, cell viability 72 h [32] | IC50, cell viability 72 h [33] | IC50, cell viability 72 h [34] | IC50, cell viability 72 h [35] | IC50, cell viability 72 h ([26]; max 3 µM)
1 | KP-3 (Pancreatic Carcinoma) | > 1000 nM | > 10000 nM | > 10000 nM | > 20000 nM | > 10000 nM | > 10000 nM | > 1000 nM | > 10000 nM | > 10000 nM | > 10000 nM | > 2000 nM | > 10000 nM | > 3000 nM | > 10000 nM | > 1000 nM | > 10000 nM | > 10000 nM | > 3000 nM | > 1000 nM | > 10000 nM | > 1000 nM | > 10000 nM | > 1 nM | > 10000 nM | > 300 nM | > 10000 nM | > 1000 nM | > 5000 nM | > 3000 nM | > 1000 nM | > 1000 nM | > 10000 nM | > 300 nM | > 1000 nM |  | 
2 | IM-95 (Gastric Carcinoma) | > 1000 nM |  | > 10000 nM |  |  |  | 276 nM |  | > 10000 nM | 7240 nM | > 2000 nM | > 10000 nM | > 3000 nM | > 10000 nM | > 1000 nM | > 10000 nM | > 10000 nM | > 3000 nM | 398 nM | > 10000 nM | > 1000 nM | > 10000 nM | > 1 nM | > 10000 nM | > 300 nM |  | > 1000 nM |  |  | > 1000 nM | > 1000 nM | > 10000 nM | > 300 nM | > 1000 nM | > 10000 nM | > 3000 nM
3 | KY821 (Acute Myeloid Leukemia) | 272 nM |  | > 10000 nM |  |  |  | 13.2 nM |  | 3070 nM | 90.7 nM | > 2000 nM | > 10000 nM | 212 nM | 28.6 nM | 8.46 nM | 610 nM | > 10000 nM | > 3000 nM | 4.53 nM | 623 nM | 9.8 nM | > 10000 nM | > 1 nM | 4630 nM | 8.99 nM |  | 5.35 nM |  |  | > 1000 nM | 22.1 nM | > 10000 nM | > 300 nM | > 1000 nM | > 10000 nM | 2700 nM
4 | SUP-B15 (B-Lymphoblastic Leukemia) | 369 nM |  | > 10000 nM |  |  |  | 38.9 nM |  | 2110 nM | > 10000 nM | 10.5 nM | > 10000 nM | 692 nM | 38.4 nM | 21.7 nM | > 10000 nM | > 10000 nM | > 3000 nM | 2.13 nM | > 10000 nM | 3.48 nM | 2020 nM | > 1 nM | 1380 nM | 2.7 nM |  | 627 nM |  |  | 34 nM | 98 nM |  | > 300 nM | > 1000 nM | 8510 nM | > 3000 nM
5 | ESO51 (Esophageal Adenocarcinoma) | > 1000 nM |  | > 10000 nM |  |  |  | > 1000 nM |  | 1790 nM | > 10000 nM | > 2000 nM | > 10000 nM | 298 nM | > 10000 nM | 42.4 nM | > 10000 nM | > 10000 nM | > 3000 nM | > 1000 nM | > 10000 nM | > 1000 nM | > 10000 nM | > 1 nM | 186 nM | > 300 nM |  | 35 nM |  |  | > 1000 nM | 354 nM |  | > 300 nM | 14.2 nM | > 10000 nM | > 3000 nM
6 | RPMI-8226 (Plasma Cell Myeloma) | 599 nM |  | > 10000 nM |  |  |  | 88.2 nM |  | 2020 nM | > 10000 nM | > 2000 nM | > 10000 nM | 1600 nM | 1410 nM | 30.5 nM | 5790 nM | > 10000 nM | > 3000 nM | 150 nM | > 10000 nM | > 1000 nM | > 10000 nM | > 1 nM | > 10000 nM | 59.6 nM |  | > 1000 nM |  |  | > 1000 nM | 114 nM |  | > 300 nM | > 1000 nM | > 10000 nM | > 3000 nM
